Key:
[1] = test system: DBA/1 J mice with CIA; experiment: Peripheral blood counts (circulating neutrophils); format: in vivo, mouse; details: any timepoint
Excerpt: DBA/1 J mice were purchased from Jackson Laboratory. All mice were kept specific pathogen free. Experimental protocols were approved by the Institutional Animal Care and Use Committee of Boston Children's Hospital (Protocol number: 20-01-4096R). To conduct a time-course study investigating onset and persistence of the cardiac dysfunction in DBA/1 J, the following groups were studied: DBA/1 J with CIA, DBA/1 J age-matched wild type, DBA/1 J with CIA treated with PAD4 inhibitor, DBA/1 J with CIA treated with 0.5% Methylcellulose (vehicle of the PAD4 inhibitor). The PAD4 specific inhibitor JBI-589 was provided by Jubilant Therapeutics (JBI-589, (R)-(3-aminopiperidin-1-yl)(2-(1-(4-fluorobenzyl)-1H-indol-2-yl)-3-methylimidazo[1,2-a]pyridin-7-yl)methanone). Mice received JBI-589 at a dose of 10 mg/kg via oral gavage for 26 consecutive days. JBI-589 was given in suspension formulation prepared using Tween-80 and 0.5% methyl cellulose. For the PAD4 inhibitor trial, mice were paired depending on their RA severity score and randomly allocated to treatment or control group. All recurring events including animal scoring and administration of inhibitor was done at similar times during the day. […]
Blood was collected from anesthetized mice via the retroorbital sinus into EDTA-coated capillary tubes and was analyzed by a Hemavet 950FS (Drew Scientific) for complete blood counts. […]

[2] = test system: primary tumor and metastasis; details: cancer; cited from earlier work
[3] = test system: DBA/1 J mice with CIA; experiment: Collagen induced arthritis (CIA) model, arthritis severity scoring; format: in vivo, mouse; details: for arthritis score: CIA mice, 10 mg/kg oral gavage once daily from day 30, n=8
Excerpt: (§1) DBA/1 J mice were purchased from Jackson Laboratory. All mice were kept specific pathogen free. Experimental protocols were approved by the Institutional Animal Care and Use Committee of Boston Children's Hospital (Protocol number: 20-01-4096R). To conduct a time-course study investigating onset and persistence of the cardiac dysfunction in DBA/1 J, the following groups were studied: DBA/1 J with CIA, DBA/1 J age-matched wild type, DBA/1 J with CIA treated with PAD4 inhibitor, DBA/1 J with CIA treated with 0.5% Methylcellulose (vehicle of the PAD4 inhibitor). The PAD4 specific inhibitor JBI-589 was provided by Jubilant Therapeutics (JBI-589, (R)-(3-aminopiperidin-1-yl)(2-(1-(4-fluorobenzyl)-1H-indol-2-yl)-3-methylimidazo[1,2-a]pyridin-7-yl)methanone). Mice received JBI-589 at a dose of 10 mg/kg via oral gavage for 26 consecutive days. JBI-589 was given in suspension formulation prepared using Tween-80 and 0.5% methyl cellulose. For the PAD4 inhibitor trial, mice were paired depending on their RA severity score and randomly allocated to treatment or control group. All recurring events including animal scoring and administration of inhibitor was done at similar times during the day. All groups were age and sex matched and were fed ad libitum with free access to water. All procedures conform with the NIH Guide for the Care and Use of Laboratory Animals. Experimental protocols were approved by the Institutional Animal Care and Use Committee of Boston Children's Hospital (Protocol number: 20-01-4096R).
DBA/1 J mice aged 8-9 weeks were immunized with an emulsion of 50 μl CFA (Chondrex, Inc.; Catalog no. 7023) and 50 μl of bovine type II collagen (Chondrex, Inc.; catalog no. 20012) injected intra-dermally into the base of the tail on day 0. On day 21, a booster immunization of type II collagen with Freund's incomplete adjuvant (IFA) (catalog no. 7002; Chondrex) was administered intra-dermally at a site proximal to the first injection site. Mice were assessed for development of arthritis using the semi-quantitative, mouse arthritis scoring system provided by Chondrex (chondrex.com). […]

[4] = Body weight of CIA mice; format: in vivo, mouse; details: day 56, n=8
Excerpt: as §1, with “Animals. […]” for “Animals. Experimental protocols were approved by the Institutional Animal Care and Use Committee of Boston Children's Hospital (Protocol number: 20-01-4096R).”

[5] = test system: DBA/1 J mice with CIA; experiment: Immunostaining of LV cryosections (Collagen I, Ly6G/H3Cit, VWF, TGF-β, alpha smooth muscle actin); format: in vivo, mouse
Excerpt: as §1
Cryosections of 8-μm were fixed in 4% paraformaldehyde, permeabilized with 0.1% Triton, blocked in 3% BSA, and incubated overnight at 4° C. with the following primary antibodies: Anti-Collagen I (Abcam; ab21286); anti-Ly6G (clone 1A8; BioLegend); anti-H3Cit (Abcam; ab5103); anti-CD31 (BD Pharmingen; 553370); anti-VWF (DakoCytomation; P0226); anti-CD42b (Emfret; M040-0); anti-CD45 (Abcam; ab154885); anti-TGF beta (Abcam; ab66043); anti-alpha smooth muscle actin (Abcam; ab5694), and anti-CD68 (Abcam; ab53444). […]

[6] = test system: DBA/1 J mice with CIA; experiment: Echocardiography of LV function and geometry in CIA mice; format: in vivo, mouse; details: n=8
Excerpt: as §1, with “All procedures conform with the NIH Guide for the Care and Use of Laboratory Animals. Experimental protocols were approved by the Institutional Animal Care and Use Committee of Boston Children's Hospital (Protocol number: 20-01-4096R).” left out
B-Mode, M-mode, and Doppler echocardiography were performed in DBA/1 J mice with CIA, DBA/1 J mice with CIA treated with PAD4 inhibitor or saline administration and age-matched DBA/1 J mice at day 0, day 25, day 45 and day 56 for time-course analysis of cardiac function. […] Body temperature was regulated through a heat pad and heart rate measured with an electrocardiogram, both were kept consistent between experimental groups (37° Celsius and 400-500 bpm). Echocardiography images were recorded using a Vevo-3100 imaging system with a 25-55-MHz linear probe (MX550D; VisualSonics, Toronto, Canada). Percentage of ejection fraction was calculated in parasternal long-axis view. M-mode was measured at the papillary muscle level in the short-axis view. […]

[7] = test system: arthritis in a mouse model; details: prophylactic treatment; cited from earlier work
[8] = test system: NET formation; experiment: Neutrophil isolation and NETosis assay; format: in vivo, mouse; details: CIA mice; n=4; p=0.03
Excerpt: as §1, with “Animals. […]” for “Animals. Experimental protocols were approved by the Institutional Animal Care and Use Committee of Boston Children's Hospital (Protocol number: 20-01-4096R).”

Cc1c(-c2cc3ccccc3n2Cc2ccc(F)cc2)nc2cc(C(=O)N3CCC[C@@H](N)C3)ccn12 [JBI-589, (R)-(3-aminopiperidin-1-yl)(2-(1-(4-fluorobenzyl)-1H-indol-2-yl)-3-methylimidazo[1,2-a]pyridin-7-yl)methanone]
number of circulating neutrophils vs vehicle [1]: no difference | neutrophil recruitment [2]: blocking neutrophil recruitment into the primary tumor and metastasis | arthritis score ([3]; Day 36): 5±0.8 | arthritis score ([3]; day 44, median (quartiles)): 9 (7-11) | effect on RA (arthritis) ([3]; twice daily regime (unpublished data)): significantly inhibits RA | body weight (health parameter) [4]: improved | collagen type 1 deposition in the LV, lower than the vehicle treated control ([5]; CIA mice treated 26 days, n=5, p=0.02): 5 times | myofibroblast concentration (alpha-smooth-muscle actin) ([5]; CIA mice, n=5, p=0.02): reduced | deposition of TGF-β in heart tissue ([5]; CIA mice, n=6, p=0.003): reduced | diastolic function as reflected by the E/A ratio ([6]; CIA mice treated 26 consecutive days, 10 mg/kg once daily oral): comparable to healthy mice | E/A ratio, higher than the placebo CIA group ([6]; CIA mice treated 26 consecutive days, 10 mg/kg once daily oral, p<0.0001): 40% | systolic left ventricular function vs vehicle ([6]; CIA mice treated 26 days, p=0.09): no difference | effect on arthritis [7]: alleviates arthritis | NET formation [8]: reduced
